Assay results: PubChem BioAssay (NCI)
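Step 1: Grow cells in 96-well plates. Step 2: Expose to compound for 48 hours at 5 concentrations. Step 3: Interpolate endpoints linearly; if unreached, use highest concentration. The concentration for full growth arrest is given as TGI.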 Where a SMILES comes first, the peptide text is derived from it.

Tests used:
Assay in all cases: DTP human tumour cell line panel, 48 h
786-0 renal = tested on: 786-0 renal
CCRF-CEM leukemia = tested on: CCRF-CEM leukemia
COLO 205 colon = tested on: COLO 205 colon
EKVX NSCLC = tested on: EKVX NSCLC
HCT-15 colon = tested on: HCT-15 colon
M14 melanoma = tested on: M14 melanoma
MDA-MB-231 breast = tested on: MDA-MB-231 breast
RXF 393 renal = tested on: RXF 393 renal
SK-MEL-2 melanoma = tested on: SK-MEL-2 melanoma
SK-MEL-28 melanoma = tested on: SK-MEL-28 melanoma
SK-MEL-5 melanoma = tested on: SK-MEL-5 melanoma
HOP-62 NSCLC = tested on: HOP-62 NSCLC

Structure (SMILES)	TGI (786-0 renal) [µM]	TGI (CCRF-CEM leukemia) [µM]	TGI (COLO 205 colon) [µM]	TGI (EKVX NSCLC) [µM]	TGI (HCT-15 colon) [µM]	TGI (M14 melanoma) [µM]	TGI (MDA-MB-231 breast) [µM]	TGI (RXF 393 renal) [µM]	TGI (SK-MEL-2 melanoma) [µM]	TGI (SK-MEL-28 melanoma) [µM]	TGI (SK-MEL-5 melanoma) [µM]	TGI (HOP-62 NSCLC) [µM]
CCCCCCCCCCOCCOCCOCCOCCCCC(O)CCCCCCCC1=C[C@H](C)OC1=O (some centres undefined)	45.5	51.1	34.5	26.4	23.9	35.7	30.8	23.5	25	25.3	22.2	
O=[N+]([O-])C(/C=C(\Cl)[N+](=O)[O-])=C(N1CCCCC1)N1CCCCC1	> 100	59	55.5	> 100	68	57	> 100	> 100	> 100	> 100	46.5	> 100
CS(=O)(=O)O[C@H]1[C@H](O)c2ccccc2[C@@H]1N=[N+]=[N-]	> 100	> 100	> 100	> 100	> 100	> 100	> 100	> 100	> 100	> 100	> 100	> 100
Cn1cc(-c2nnc(-c3ccc(Cl)cc3)[nH]c2=O)c2ccccc21	> 44.6	> 22.7	> 100	> 64.9	> 100	> 100	> 84.9	> 22.1	> 37.3	> 100	> 43.7	> 75.8
O=[N+]([O-])/C(Cl)=C/C(=C1/Nc2ccccc2O1)[N+](=O)[O-]	> 100	53.6	45.1	40.5	42	51.1	76.4	38.6		35.9	40.5	76.6
COc1cc(/C=C2\N=C(c3ccccc3)N(c3nc4ccc(Sc5ccccc5)cc4[nH]3)C2=O)cc(OC)c1OC	42.4	> 100	33	> 100	> 100	49.7	50.3	> 100	33	67.4	26.3	> 100
COc1cc(C2OC[C@@H]3C(=O)OC[C@H]23)cc(O)c1OC (some centres undefined)	> 100	> 100	> 100	> 100	> 100	> 100	> 100	> 100	> 100		> 100	
Cc1cn(C2CCN(CC3COC(C)(C)O3)O2)c(=O)[nH]c1=O (centres undefined)	> 100	> 100	> 100	> 100	> 100	> 100	> 100	> 100	> 100	> 100	> 100	> 100
O=c1[nH]c2c(c(=O)[nH]1)C(c1ccc([N+](=O)[O-])cc1)c1c([nH]c(=O)[nH]c1=O)O2	> 100	90.5	> 100	> 100	> 100	> 100	> 100	> 100	> 100	> 100	> 100	> 100
CC(C)Cn1cnc2c(Cl)nc3ccccc3c21	> 100	> 100	> 100	> 100	> 100	> 100	> 100	> 100	> 100	> 100	42.2	> 100
CN(C)c1ccc(/C=C(\NC(=O)c2ccccc2)C(=O)Nc2cccc(C(=O)NCCCO)c2)cc1	> 100	> 100	> 100	> 100	> 100	> 100	> 100	> 100	> 100	> 100	> 100	> 100
O=S(=O)(CCC[C@H]1[C@@H](CCOCc2ccccc2)C2CCCN1O2)c1ccccc1 (some centres undefined)	> 100	> 100	> 100	> 100	> 100	> 100	> 100	> 100		> 100	> 100	> 100
C(#CC1(Nc2ccccc2)CCN(Cc2ccccc2)CC1)C1(Nc2ccccc2)CCN(Cc2ccccc2)CC1	39.5	37.3	3.5	> 46.4	> 46.4	> 100	42.8	25.7	20.1	26.7	18.3	40.7
O=C(CN=C(CN(c1ccccc1)c1ccccc1)Oc1ccc(Cl)cc1Cl)n1ccnc1	> 100	> 100	> 100	> 100	> 100	> 100	> 100	> 100	> 100	> 100	> 100	> 100
Nc1cc(Cl)ccc1SSc1ccc(Cl)cc1N	25.9	> 100	35.9	24.5	8.8	21.7	20.3	> 100	35	40.6	27	29.4
CCC(C)C(NC(=O)C(CC(C)C)NC(=O)CNC(=O)C(NC(=O)C1CCCN1C(=O)C(CC(C)C)NC(=O)C(N)Cc1ccccc1)C(C)CC)C(=O)NC(CC(C)C)C(N)=O (centres undefined) (H-FLPIGLIL-NH2; configuration not given here)	> 75	> 75	> 75	> 75	> 75	> 75	> 75		> 75	> 75	> 75	> 75
O=C1[C@@H](O)[C@@H]2CCCC[C@@]23CCCN13	> 100	> 100	> 100	> 100	> 100	> 100	> 100	> 100	> 100	> 100	> 100	> 100
O=C1/C(=C/c2ccc(O)c(O)c2)CC/C1=C\c1ccc(O)c(O)c1	38.2	9.81	> 86.8	> 75.3	> 100	9.56	> 100	19.3	> 72.7	> 100	> 60.3	39
O=C1C=C(c2ccccc2)O/C1=C\C(=O)c1ccc(Cl)cc1	28.8		30.8	> 100	35.1	41.5	32.7	32.6		38.5	91.9	> 100

Structure (SMILES)	TGI (786-0 renal) [µM]	TGI (CCRF-CEM leukemia) [µM]	TGI (COLO 205 colon) [µM]	TGI (EKVX NSCLC) [µM]	TGI (HCT-15 colon) [µM]	TGI (M14 melanoma) [µM]	TGI (MDA-MB-231 breast) [µM]	TGI (RXF 393 renal) [µM]	TGI (SK-MEL-2 melanoma) [µM]	TGI (SK-MEL-28 melanoma) [µM]	TGI (SK-MEL-5 melanoma) [µM]	TGI (HOP-62 NSCLC) [µM]
Cc1cccc(C)c1N=Nc1ccc(O)c(CN(C)C)c1	> 100	> 100	44.8	> 100	> 100	58.1	> 100	46	88.8	60.6	25.2	> 100
CCC1CCC2c3c([nH]c4ccc(C)cc34)C3C(=O)N(N(C)C)C(=O)C3C2C1 (centres undefined)	> 60.1	> 100	> 100	> 100	> 100	> 100	> 100	57.7	> 100	> 100	> 100	> 100
COC(=O)/N=[N+](\[O-])C(c1ccccc1)c1ccccc1	> 100	> 100	> 100	> 100	> 100	> 100	> 100	> 100	> 100	> 100	> 100	
COC(=O)Cn1c(=O)oc2nc(-c3ccccc3)cc(C(F)(F)F)c21	> 100		> 100	> 100	> 100	> 100	> 100	> 100	> 100	> 100	61.9	> 100
O=C1CS(=O)(=O)C(c2cccc(Oc3ccccc3)c2)N1C1CC1 (centres undefined)	> 100	> 100	72.9	> 100	> 100	> 100	> 100	55.1	> 100	> 100	39.3	
C/C=C\C(CC(=O)OC)CC(=O)N(CCC1CN(S(=O)(=O)C(F)(F)F)c2ccccc21)Cc1ccc(OC)cc1OC (centres undefined)	> 100		> 100	> 100	> 100	> 100	> 100	> 100	> 100	> 100	> 100	> 100
CCCCC1(O)CC2CC1C(C)C2(C)C (centres undefined)	> 100	> 100	> 100	> 100	> 100	> 100	> 100	> 100		> 100	> 100	> 100
COc1ccc2c(c1OC)C(=O)N/C2=C\c1c(CCN(C)C)cc2c(c1OC)OCO2	> 100	> 100	> 100	> 100	> 100	> 100	> 100	84.1		> 100	> 100	> 100
CCOC(=O)c1sc2nc1CSc1sc(=S)sc1SCc1nc(sc1C(=O)OCC)-c1nc(c(C(=O)OCC)s1)CSc1sc(=S)sc1SCc1nc-2sc1C(=O)OCC	> 10	> 10	> 10	> 10	> 10		> 10	> 10	> 10	> 10	> 10	> 10
CN(C)CC1CCC/C(=C\c2ccccc2)C1=O (centres undefined)	6.9	> 100	5.27	33.7	4.67		4.18	7.38	18.9	6.04	21.4	34.2
Cc1cc(S(=O)(=O)NC(=NCCc2ccccc2)NN)c(S)cc1Cl	> 100	90.1	> 100	> 100	37.9	91.5	> 100	64.7	> 100	71.3	37.9	
C=C(Cl)C(C)(Cl)CCC(Cl)C(C)C (centres undefined)	> 100	> 100	> 100	> 100		> 100	> 100	> 100	> 100	> 100	> 100	> 100
S=C1CC(c2ccccc2)Sc2cc(Cl)ccc2N1 (centres undefined)	17.7	9.33	> 100	> 100	> 100	> 100	20.7	18.1		51.8	29.4	18.4
CC1=CC(=O)N(n2c(Cc3ccc(Cl)cc3)n[nH]c2=O)C1=O	> 100	29.3	> 100	> 100	> 100	> 100	> 100	53.1	> 100		> 100	
CCOC(=O)N/N=C(\CC)OCC	> 100	> 100	> 100	> 100	> 100	> 100	> 100	> 100	> 100		> 100	> 100
C#CCOCn1cc(C)c(=O)[nH]c1=O	> 100	> 100	> 100	> 100	> 100	> 100	> 100		> 100	> 100	> 100	> 100
O=c1[nH]nc(Cc2ccccc2)n1/N=C/c1ccc([N+](=O)[O-])cc1	> 100	> 100	> 100	> 100	> 100		> 100	> 100	> 100	> 100	> 100	> 100
C[N+]12C=CC=C1C(N1CCCC1)c1scc(-c3ccc(F)cc3)c12 (centres undefined)	> 100	4.4	51.3	> 100		> 100	> 100	> 100	49	> 100	36.2	> 100
